The text below walks through data of patent US20240285670A1, “THERAPEUTIC TREATMENT OF TUMORS BY BLOCKING THE HEME SYNTHESIS-EXPORT AXIS” (Università degli Studi di Torino, priority 2021, published 2024).

The experiment relates to FLVCR1a. Nature of the experiment: qRT-PCR analysis of FLVCR1a expression in SHSY5Y cells. The format is cell-based, human. To be noted: 5 mM ALA for 15 hours vs non-treated. The method, then: (A) Heme content in SHSY5Y cells non-treated (NT) or treated with 5 mM ALA for 15 hours. Values are expressed as pmol heme/mg protein. Data represent mean±SEM, n=3; *=P<0.05. (B, C) qRT-PCR analysis of the expression of ALAS1 (B) and FLVCR1a (C) in SHSY5Y cells non-treated (NT) or treated with 5 mM ALA for 15 hours. Transcript abundance, normalized to beta-actin mRNA expression, is expressed as a fold increase over a calibrator sample. Data represent mean±SEM, n=4. For statistical analyses, an unpaired Student's t-test was used; *p<0.05. (D) qRT-PCR analysis of the expression of ALAS1 in SKCO1 cells untreated (NT) or treated with 5 mM ALA for 24 hours. Transcript abundance, normalized to beta-actin mRNA expression, is expressed as a fold increase over a calibrator sample. Data represent mean±SEM, n=5. […] Band intensities were measured by densitometry and normalized to beta-actin expression. […] (F) Proliferation of SHSY5Y cells assessed by crystal violet staining at different time points (starting from the day after plating, named “day 0”). Treatment with 5 mM ALA occurred at “day 0” and cells were monitored until the end of the experiment without medium refresh. […] (G) SKCO1 cells viability measured by the CellTiter-Fluor Cell Viability Assay (Promega, Madison, WI USA, catalog n°G6080) at different time points, starting from the day after plating (named “day 0”), as a readout of cell proliferation. […]

Consider `Cl.NCC(=O)CCC(=O)O` [5-ALA, 5-Aminolevulinic acid hydrochloride], for which the FLVCR1a transcript levels entry was “reduced”.
